Holding throughout (assay): growth of human tumour cells (NCI), 48 h
Assay [1] concerns UACC-257 melanoma.
Assay [2] deals with M14 melanoma.
Assay [3] deals with SK-OV-3 ovarian.
Assay [4] relates to IGROV1 ovarian.
Assay [5] deals with SR leukemia.
Assay [6] has as its system HL-60(TB) leukemia.
The test system of assay [7] is SNB-75 CNS.
The test system of assay [8] is SF-295 CNS.
Assay [9] concerns BT-549 breast.
Assay [10] has as its system OVCAR-4 ovarian.

SMILES strings stand for the structures. Several values for one entry are separate records, joined by “and”; a condition that tells them apart may be missing. Equal entries are not always repeated.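 Assay format: 96-well plates, 48-hour exposure. Here, GI50 denotes the concentration required for 50% inhibition of growth. TGI: total growth inhibition.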

For the compound `COc1ccc(-c2ccncc2)cc1C(N)=O`, the GI50 in [1], in assay [2], in assay [3], in assay [4], in assay [5] and in [6] was greater than 25 µM each time. Further, the GI50 in assay [7], in [8], in assay [9] and in assay [10] was greater than 25 µM each time. The TGI in assay [1], in assay [2], in assay [3], in assay [4], in [5] and in assay [6] was greater than 25 µM throughout. Further, the TGI in [7], in assay [8], in assay [9] and in assay [10] was greater than 25 µM throughout.
As to `Cc1nc(-c2ccccc2)n2nc(NCCCN3CCOCC3)ncc12`, the GI50 was greater than 25 µM in assay [1]; 16.5 µM in [2]; 6.1 µM in assay [3]; 13.8 µM in [4]; greater than 25 µM in assay [5]; greater than 25 µM in [6]. Besides, the GI50 is greater than 11.9 µM in [7], greater than 25 µM in assay [8], greater than 25 µM in assay [9] and 15.1 µM in assay [10]. For the same compound, the TGI in [1] was greater than 25 µM; in assay [2] it was greater than 25 µM; in assay [3], 17.9 µM; in assay [4], greater than 25 µM; in assay [5], greater than 25 µM; in [6], greater than 25 µM. Moreover, the TGI in assay [7], in assay [8], in assay [9] and in [10] was greater than 25 µM in each case.
Take `CN(CCCCCl)P(=O)(OCCS(=O)(=O)CC(NC(=O)CCC(N)C(=O)O)C(=O)NC(C(=O)O)c1ccccc1)OCC1OC(n2ccc(N)nc2=O)C(F)(F)C1O` (centres undefined): the GI50 was 25 µM in assay [1]; 0.0369 µM in assay [2]; 0.784 µM in assay [3]; 0.0581 µM in assay [4]; 0.303 µM in assay [5]; 0.0339 µM in assay [6]. The GI50 in assay [7] was 0.825 µM; in [8] it was 0.334 µM; in assay [9], 0.783 µM; in assay [10], greater than 100 µM. The TGI in assay [1] was greater than 100 µM; in assay [2], 0.435 µM; in assay [3], greater than 100 µM; in assay [4] it was 25.9 µM; in assay [5], 11 µM; in assay [6] it was 5.23 µM. Moreover, the TGI in [7] was greater than 25.2 µM; in assay [8], 2.71 µM; in assay [9], greater than 100 µM; in assay [10] it was greater than 100 µM.
As to `Cc1ncc(C(=O)Nc2ccc(CN3CCN(C)CC3)c(C(F)(F)F)c2)cc1C#Cc1cnc2cccnn12`, the GI50 in assay [1] is 0.531 µM; in assay [2] it was 0.163 µM; in assay [3] it was 1.63 µM; in [4], 0.268 µM; in assay [5], 0.293 µM; in assay [6], 0.195 µM. Further, the GI50 in [7] is 1.04 µM; in assay [8], 1.01 µM; in assay [9], 1.23 µM; in assay [10] it was 0.205 µM. Further, the TGI in [1] came to 4.43 µM; in assay [2], 0.732 µM; in assay [3], 7.19 µM; in assay [4] it was 4.45 µM; in assay [5] it was 50 µM; in assay [6] it was 1.17 µM. For the same compound, the TGI in assay [7] was determined as 1.99 µM; in assay [8] it was 4.71 µM; in [9] it was 3.72 µM; in [10], 1.98 µM.
In the case of `COc1cc(OC)c(C(=O)/C=C/c2cc3c(cc2OCc2ccccc2)OC(C)(C)CC3)cc1CC=C(C)C`, the GI50 in [1] is 13.1 µM; in assay [2], 3.63 µM; in assay [3], 7.42 µM; in assay [4], 15 µM; in assay [5], 2.77 µM; in assay [6] it was 5.43 µM. In addition, the GI50 in [7] is 2.44 µM; in assay [8], 4.56 µM; in [9], 4.2 µM; in assay [10], 4.06 µM. In addition, the TGI in [1] was greater than 25 µM; in assay [2], 9.43 µM; in assay [3], greater than 25 µM; in assay [4] it was greater than 25 µM; in assay [5], 22.8 µM; in assay [6], 17.1 µM. Moreover, the TGI is 13.1 µM in assay [7], 15.8 µM in assay [8], 12.3 µM in assay [9] and 14.3 µM in [10].
On to `CCCCCCCCCCCCCCCCCC1=NC(C)(C)CN1CC(C)O` (centres undefined), for which the GI50 was 22.4 µM in [1]; 2.29 µM in assay [2]; 18.8 µM in assay [3]; 10.1 µM in assay [4]; 2.75 µM in [5]; 4.82 µM in assay [6]. Further, the GI50 in assay [7] is 9.11 µM; in [8] it was 13 µM; in assay [9], 19.7 µM; in [10] it was 12.5 µM. Besides, the TGI in assay [1] is 40.6 µM; in [2], 5.77 µM; in assay [3] it was 37 µM; in [4], 27.7 µM; in assay [5], greater than 100 µM; in assay [6], 24.8 µM. The TGI in assay [7] was 23.6 µM; in assay [8], 31.4 µM; in [9], 40.9 µM; in assay [10], 28.4 µM.
In the case of `COc1ccc(/C=C/C(=O)/C=C/c2cc3ccccc3[nH]c2=O)cc1`, the GI50 in [1] was 10.8 µM; in [2], 2.8 µM; in assay [3], 9.22 µM; in [4], 2.21 µM; in assay [5], 2.88 µM; in assay [6], 3.24 µM. The GI50 is 4.33 µM in [7], 2.65 µM in assay [8], 2.25 µM in [9] and 9.73 µM in assay [10]. Moreover, the TGI in assay [1] is 25.3 µM; in assay [2], 8.92 µM; in [3], 26.7 µM; in [4], 5.1 µM; in [5], 8.65 µM; in assay [6], 17.6 µM. For the same compound, the TGI is 18.7 µM in assay [7], 8.02 µM in assay [8], 6.19 µM in assay [9] and greater than 100 µM in assay [10].
For `COc1ccc(NC(=O)CSC2=C(Nc3cccc(Br)c3)C(=O)N(Cc3ccccc3)C2=O)cc1Cl`, the GI50 in assay [1] is greater than 100 µM; in assay [2], greater than 100 µM; in [3], greater than 100 µM; in [4], 30.7 µM; in assay [5], 3.02 µM; in [6] it was 3.41 µM. The GI50 in [7] is greater than 100 µM; in assay [8], greater than 100 µM; in [9], 51.6 µM; in assay [10] it was greater than 100 µM. Further, the TGI is greater than 100 µM in assay [1]; greater than 100 µM in assay [2]; greater than 100 µM in assay [3]; greater than 100 µM in assay [4]; 24.3 µM in [5]; greater than 100 µM in assay [6]. Besides, the TGI in [7], in [8], in assay [9] and in assay [10] was greater than 100 µM throughout.
With `CC(C)Nc1cc(-c2c[nH]c(C(=O)N[C@H](CO)c3cccc(Cl)c3)c2)c(Cl)cn1`, the GI50 in assay [1] is 0.0732 µM; in [2] it was 0.101 µM; in [3], 3.23 µM and > 7.67 µM; in [4], 0.516 µM and 0.366 µM; in assay [5], 3.38 µM and 3.66 µM; in assay [6], 0.378 µM and 0.272 µM. For the same compound, the GI50 was 4.5 µM and > 5.45 µM in assay [7]; 4.22 µM and > 8.07 µM in assay [8]; 3.19 µM and > 5.25 µM in assay [9]; 3.68 µM and > 6.63 µM in assay [10]. Moreover, the TGI in assay [1] is 0.519 µM; in assay [2], greater than 2.58 µM; in [3], 18 µM and > 10 µM; in assay [4], 20.5 µM and > 10 µM; in assay [5] it was 40.5 µM and > 10 µM; in assay [6], 4.67 µM and > 10 µM. The TGI is 19.8 µM and > 10 µM in [7]; 18.1 µM and > 10 µM in assay [8]; 15.7 µM and > 10 µM in assay [9]; 20.7 µM and > 10 µM in assay [10].
For `COc1ccc2c(=O)cc(-c3ccccc3)[nH]c2c1`, the GI50 in assay [1] was 0.335 µM; in [2], 5.93 µM; in assay [3], 1.17 µM; in assay [4] it was 0.578 µM; in assay [5] it was 0.258 µM; in assay [6] it was 0.256 µM. Moreover, the GI50 in assay [8] is 0.33 µM; in [9], 0.56 µM; in assay [10] it was 3.28 µM. Moreover, the TGI in [1] is greater than 100 µM; in assay [2], greater than 100 µM; in assay [3], greater than 30.8 µM; in [4], greater than 100 µM; in assay [6], 1.19 µM; in [7] it was greater than 100 µM. Also, the TGI is 1.84 µM in assay [8], greater than 27.7 µM in [9] and greater than 100 µM in assay [10].
Regarding `CCNc1cc(-c2cccc(OC(F)(F)F)c2)nc2ccc(N3CCCC3)cc12`, the GI50 in assay [1] is 1.66 µM; in assay [2], 1.64 µM; in assay [3] it was 1.8 µM; in assay [4] it was 1.78 µM; in assay [5], 1.57 µM; in [6], 1.97 µM. In addition, the GI50 was 1.53 µM in assay [7], 1.82 µM in assay [8], 2.03 µM in [9] and 2.35 µM in assay [10]. In addition, the TGI stood at 3.46 µM in assay [1]; 3.28 µM in [2]; 3.86 µM in assay [3]; 4.79 µM in assay [4]; 5 µM in assay [5]; 4.27 µM in assay [6]. In addition, the TGI in [7] turned out to be 4.5 µM; in [8], 3.6 µM; in assay [9], 4.07 µM; in assay [10], 10.7 µM.
For `CCOC(=O)C(Cc1c[nH]c2c(N(CCO)CCO)cccc12)(NC(C)=O)C(=O)OCC`, the GI50 in assay [1] was greater than 1000 µM; in assay [2] it was greater than 1000 µM; in assay [3] it was greater than 1000 µM; in [4] it was 643 µM; in assay [5] it was 144 µM; in assay [6], 318 µM. Further, the GI50 in assay [7] is 50.9 µM; in [8], 148 µM; in assay [9] it was 564 µM; in assay [10], 196 µM. Further, the TGI in assay [1] was greater than 1000 µM; in assay [2], greater than 1000 µM; in [3], greater than 1000 µM; in assay [4], greater than 1000 µM; in [5] it was 890 µM; in assay [6], greater than 1000 µM. The TGI in assay [7] is 249 µM; in assay [8], greater than 1000 µM; in [9], greater than 1000 µM; in assay [10], greater than 1000 µM.
Take `NCCSSCCN`: the GI50 in assay [1] was > 100 µM and 18.2 µM. The TGI in [1], in assay [2], in assay [3], in assay [4], in assay [5] and in assay [6] was greater than 100 µM throughout. Moreover, the TGI in [7], in [8], in [9] and in assay [10] was greater than 100 µM in each case.
For `FC(F)(c1ccc2ncccc2c1)c1nnc2ccc(-c3ccncc3)nn12`, the GI50 in [1] was greater than 100 µM; in [2] it was greater than 100 µM; in assay [3], greater than 100 µM; in assay [4], 49.4 µM; in [5], greater than 100 µM; in assay [6] it was greater than 100 µM. Besides, the GI50 in assay [7] is 19 µM; in [8], 2.21 µM; in assay [9], 53.7 µM; in [10], greater than 100 µM. Also, the TGI in [1], in assay [2], in assay [3], in assay [4], in assay [5] and in assay [6] was greater than 100 µM in each case. Also, the TGI in [7], in [8], in assay [9] and in assay [10] was greater than 100 µM throughout.
`COc1ccc(C2OC(=O)c3ccc4ccccc4c32)c(C)c1` (centres undefined): the TGI in assay [1] is greater than 100 µM; in [2], greater than 38 µM; in assay [3] it was 60.1 µM; in assay [4], greater than 67.8 µM; in assay [5], greater than 89.7 µM; in [6], greater than 24.6 µM. For the same compound, the TGI in [7] was 44.7 µM; in assay [8] it was 14.7 µM; in assay [9], greater than 100 µM; in assay [10], greater than 100 µM.

(Values after PubChem BioAssay (NCI).)
